Source: PMC5041077, “Metabolic profile and safety of piperlongumine” (Scientific Reports, 2016)

Experiments:
human liver microsomes = test: In vitro kinetic study of PPL metabolism (substrate depletion) in human liver microsomes; type: in vitro ADME
Description: The in vitro kinetic study was performed setting the incubation conditions through the maintenance of initial velocity (V0); 0.45 mg/mL microsomal protein and 16 min time incubation were selected and the substrate concentration was ranged from 0.38 to 283.6 μM. The substrate depletion was quantified employing an analytical validated method (Tables S1, S2 and S3 and Fig. S1-Supplementary Information).
The metabolism was evaluated by measuring the rate of disappearance of the PPL peak. The incubations were performed in triplicate using 10 mL amber tubes. The metabolism medium consisted of substrate, a NADPH regeneration system solution A (1.3 mM NADP^+ and 3.3 mM glucose-6-phosphate), a NADPH regeneration system solution B (0.4 U/mL glucose-6-phosphate dehydrogenase), HLM and a potassium phosphate buffer pH 7.4 (100 mM) in a total volume of 200 μL. This microsomal medium was incubated in a shaking water bath at 37 °C. After pre-warming for 5 min at 37 °C to favor the formation of NADPH from the solutions A and B, the reaction was initiated by the addition of the HLM. To determine the enzymatic kinetic parameters, the linear conditions for microsomal protein concentration and for incubation time were optimized. The microsomal protein concentration was evaluated from 0.1 to 1.5 mg of protein per mL (n = 3), and the incubation time was varied from 0 to 40 min (n = 3). The linear range was obtained from these parameters and used to perform the substrate variation concentration at V0 conditions. The reactions were stopped by the addition of 200 μL of cold acetonitrile, gently agitated for 20 s and then centrifuged for 5 min at 2860x g. Finally, aliquots of the supernatant were removed and injected into the chromatographic system. Control incubations were performed in the absence of the cofactor solution and in the absence of the HLM. The difference between ‘with’ and ‘without’ NADPH was attributed to CYP450-mediated metabolism.
(§1) The kinetic parameters were calculated from nonlinear regression using GraphPad Prism Version 3.03 (San Diego, CA, USA). The Intrinsic Clearance (CLint) was obtained considering the Hill coefficient. The Unbounded Intrinsic Clearance (CLuint), Predicted in vivo Clearance (CL) and Hepatic Clearance (CLH) were determined according to Subramarian and Tracy[15] and Austin et al.[17]. Hepatic extraction ratio was calculated according to Kashuba et al.[21]. Dose-dependent inhibition parameters were determined employing SigmaPlot version 12.0 (Chicago, IL, USA). The Lineweaver-Burk plot was used to determine the inhibition profile. The second plot of slopes from Lineweaver-Burk plot versus PPL concentrations was utilized to calculate the Ki. The parameters kinact and KI in time-dependent inhibition were calculated employing GraphPad Prism Version 3.03.

CYP1A2 [1] = biological target: T1, CYP1A2 (Homo sapiens, UniProt P05177); test: Mechanism-based (time-dependent) inhibition of CYP1A2 by piperlongumine; type: in vitro ADME; design: kinact: dose or concentration left out as unconfirmed; settings: human liver microsomes, pH 7.4, probe phenacetin […] µM
Description: Reactions were terminated as described above.
as §1

CYP1A2 [2] = biological target: T1, CYP1A2; test: NADPH-dependent inhibition study; type: in vitro ADME; settings: PPL at 1/2 IC50, pre-incubation 0 and 30 min
Description: NADPH-dependent Inhibition. The mechanism-based inhibition is characterized by dose-, NADPH- and time-dependent cytochrome P450 oxidoreductase, so the NADPH dependence study was performed. […] NADPH regeneration system was added and the mixture was pre-incubated for 0 and 30 min. […] The mixture was incubated by 30 min and the reaction stopped as described previously. Controls without PPL were performed.

[3] = Piperlongumine stability assay (microsomal medium); type: physicochemical
Description: Method validation protocol and results. The quantification method of PPL was validated by following the European Medicines Agency (EMA) guidelines. Analytical curves were obtained by spiking 200 µL aliquots of HLM with PPL 0.38; 0.95; 9.45; 141.80; 236.34 and 283.61 µM. The linearity was carried out and assessed in triplicate. The linearity was determined using the correlation coefficient (r), the F test for lack-of-fit and a p value of 0.05. The MINITAB Release version 14.1 software (State College, PA, USA) was used to conduct the statistical analysis (Table S1). Carbamazepine (2120 µM) was used as internal standard, and the ratio of the peak area of the PPL and carbamazepine was defined as the analytical response. The lower limit of quantification (LLQ) was obtained by spiking the incubation mixture samples at a concentration of 0.38 µM. The selectivity of the method was assured by analyzing the standard solutions of reagents and the blank HLM (Fig. S1). The absolute recovery (%) was performed at three different concentrations: 0.95, 141.8, 212.7 µM. The recovery was expressed as the percentage of the extracted amount, by comparing the areas from the samples subjected to the extraction procedure with the areas from the analysis of standard solutions of the same concentration that were not submitted to the extraction process. To assess the within-day precision and accuracy, replicate analyzes (n = 5) of 200 µL of microsomal medium spiked at concentrations 0.38, 0.95; 141.8 and 236.3 µM was analyzed in a single day. For between-day assays, samples at the same concentration described above were analyzed for three consecutive days (n = 5) (Table S2). These samples were quantified using a new calibration curve prepared daily. The stability assays were performed to evaluate the PPL stability at three different conditions: (i) at room temperature (25 °C ± 2 °C, for 4 h), (ii) at incubation conditions (37 °C, for 60 min) and (iv) in the autosampler equipment (25 °C ± 2 °C, for 24 h). These assays aimed to evaluate the stability of PPL during sample preparation, during the metabolism reaction and during the analysis, respectively. […] The peak area obtained from the stability assays was quantified using a fresh analytical curve prepared daily. The samples were considered stable when the relative error (RE, %) from the nominal concentration was within ±15% and when the relative standard deviation (RSD%) was below 15% (Table S3).

T1 sequence (P05177 whole entry): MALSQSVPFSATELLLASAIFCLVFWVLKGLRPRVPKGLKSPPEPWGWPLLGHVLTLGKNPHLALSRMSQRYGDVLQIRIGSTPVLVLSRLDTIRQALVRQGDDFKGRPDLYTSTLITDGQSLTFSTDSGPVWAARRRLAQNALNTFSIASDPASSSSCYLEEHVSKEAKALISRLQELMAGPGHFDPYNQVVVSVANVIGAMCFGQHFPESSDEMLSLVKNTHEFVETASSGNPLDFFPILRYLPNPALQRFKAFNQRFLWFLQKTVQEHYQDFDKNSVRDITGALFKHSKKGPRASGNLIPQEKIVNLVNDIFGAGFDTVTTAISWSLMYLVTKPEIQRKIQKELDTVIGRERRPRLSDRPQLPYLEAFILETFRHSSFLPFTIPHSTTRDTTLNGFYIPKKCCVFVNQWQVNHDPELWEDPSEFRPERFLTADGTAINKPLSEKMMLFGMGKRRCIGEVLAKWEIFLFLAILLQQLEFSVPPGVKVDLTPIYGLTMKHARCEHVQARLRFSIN

COc1cc(/C=C/C(=O)N2CCC=CC2=O)cc(OC)c1OC [PPL, Piperlongumine] gave a Hill coefficient (human liver microsomes; HLM 0.45 mg/mL, 16 min) of 3.0, an S50 (human liver microsomes; HLM 0.45 mg/mL, 16 min, sigmoidal profile) of 127.7 µM and a Vmax (human liver microsomes; HLM 0.45 mg/mL, 16 min, substrate 0.38 to 283.6 μM, sigmoidal profile) of 5.5 ± 0.5 nmol/mg protein/min. The “S50 in human relative to the value observed in rats” value (human liver microsomes; human vs rat liver microsomes, rat value ref 19) was 2.7 times, the kinact (CYP1A2 [1]) was 0.000233 s⁻¹ and the KI (inactivation) (CYP1A2 [1]; read-out: KI (inactivation parameter)) was 8 µM. For the same compound, the “NADPH dependence of CYP oxidative inhibition” value (CYP1A2 [2]) was “NADPH-dependent”, the “stability, RE (%) from nominal concentration” value (shortened to “stability, RE (%)”) ([3]; 37°C (1h), PPL 0.95 µM) was 0.6% and the “stability, RE (%)” value ([3]; 37°C (1h), PPL 212.7 µM) was 0.0%. The “stability, RE (%)” value ([3]; Auto injector (24 hs), PPL 0.95 µM) was -4.0%, the “stability, RE (%)” value ([3]; Auto injector (24 hs), PPL 212.7 µM) was 0.0% and the “stability, RE (%)” value ([3]; Room temperature (4 hs), PPL 0.95 µM) was 0.6%. The “stability, RE (%)” value ([3]; Room temperature (4 hs), PPL 212.7 µM) was 6.0%.
